Type in all cases: cell-based, human
The subject of test [1] is BRCA2-null LNCaP cells. The experiment in a line: MTT cell growth of BRCA2 CRISPR-edited LNCaP cells with PARP inhibitors or cisplatin. As to conditions: BRCA2 knockout LNCaP vs control gRNA (scr) cells; complete medium, 6 days (FIG. 7C). The protocol: Cells infected with scrambled (scr) gRNA were used as control. Equal amount of proteins was loaded in WedgeWell 6% gel and western blot was performed. ˜400 kDa BRCA2 band is indicated by arrow. GAPDH served as loading controls for western blot and qPCR. […] Genotypes are detected by PCR amplification followed by being treated with T7 endonuclease. Wt and mutant BRCA2 are indicated by red and green arrows, respectively. […] Equivalent volume of DMSO was used as placebo treatment. Cell growth was measured by MTT assay (see Example 1); SD, P-values determined by Student's t-test. *P<0.05, **P<0.01, ***P<0.001. FIGS. 7D-7E show the growth curve (FIG. 7D) and a bar graph (FIG. 7E) representing the cell growth of LNCaP BRCA2 CRISPR-edited and non-targeting control gRNA (scr) infected cells in complete medium supplemented with enzalutamide (ENZ; indicated concentration) for 7 days or charcoal-stripped medium (CSS) for 5 days, respectively. Equivalent volume of DMSO was used as placebo treatment. Cell growth was measured by crystal violet staining assay (see Example 1) (±SD); P-values determined by Student's t-test. […] Equivalent volume of DMSO was used as placebo treatment. Cell growth was measured by MTT assay (see Example 1) (±SD); P-values determined by Student's t-test. […] Total RNA was isolated, and BRCA2 mRNA was analyzed by qPCR. […] Cell growth was measured by MTT assay; SD, P-values determined by Student's t-test.
To generate BRCA2 knockout RWPE1 cells, BRCA2 gRNA2 was cloned into LentiCRISPRv2-GFP backbone which constitutively expresses Cas9 and GFP. Lentiviral infected cells were selected by FACS sorting for GFP positive cells (twice) and analyzed by western blot. […] Loss of BRCA2 in the pooled populations of LNCaP cells was analyzed by western blot using BRCA2-specific antibodies and this pooled population of cells was used for the following experiments. […]
Cell Proliferation Assay by MTT, BrdU and Crystal Violet. […] MTT crystals were dissolved in isopropanol and absorbance was measured in a BioTek plate reader at […] and represented graphically.

Test [2] deals with LNCaP-BRCA2-RB1 cells. The experiment in a line: MTT cell growth with PARP inhibitors. Particulars: LNCaP-BRCA2-RB1 vs BRCA2-null LNCaP; olaparib 3 μM, talazoparib 0.005 μM (FIG. 2E). The protocol: (§1) Scr-CRISPR and BRCA2-CRISPR2 cells were also transfected with non-targeting shRNA (scr-Sh) for control of shRNA. RHoGDI served as the loading control. […] Equivalent volume of DMSO was used as placebo treatment. Cell growth was measured by MTT assay; SD, p-values were determined by Student's t-test. […] FIG. 2C (2nd and 3rd rows) show the immunofluorescence (400× magnification) of F-actin filament stained with phalloidin in indicated CRISPR/shRNA-infected LNCaP cells. Nuclei were stained with DAPI (blue). […] 5×10^3 indicated cells were plated on the top of Boyden chamber (see Example 1) in serum-free media; 10% serum in the bottom chamber was used as chemo-attractant. After 48 hours, cells in the lower side of the chamber were fixed, stained, and photographed (100× magnification). […] Nuclei were stained with DAPI (blue). […] The graphs show cell growth measured by MTT assay (±SD); P-values determined by Student's t-test. […] RNA sequencing was analyzed by Partek.
(§2) To generate BRCA2-RB1 knockout-knockdown LNCaP cells, parental LNCaP cells were first infected with lentivirus containing BRCA2 gRNA or scr gRNA. Pooled population of the stable cells were established by puromycin selection and analyzed by western blot and qPCR. BRCA2-knockout or scr LNCaP cells were infected with lentivirus containing RB1 shRNA followed by hygromycin selection. BRCA2-knockout or scr (gRNA) LNCaP cells also infected with lentiviral non-targeting shRNA (scr-shRNA) were used as control. Cells within 4-10 passages after stable selection were used for the following experiments.
(§3) Cell Proliferation Assay by MTT, BrdU and Crystal Violet. For MTT assay, cells were plated at 2.5×10^3 per well in 96-well plates in complete media (10% FBS) or media supplemented with 10% charcoal-stripped serum. Cells were either treated with DMSO or with indicated inhibitors. After indicated times, cells were incubated in 0.5 mg/mL MTT (Invitrogen) for 1 hour at 37° C. MTT crystals were dissolved in isopropanol and absorbance was measured in a BioTek plate reader at […] and represented graphically.

The test system of test [3] is RB1 knockdown LNCaP cells. The experiment in a line: MTT cell growth with PARP inhibitors. As to conditions: RB1 knockdown vs control LNCaP cells; olaparib 3 μM, talazoparib 0.005 μM (FIG. 2E). The protocol: as §1, §2, §3
Test [4] relates to 22RV1 cells. Briefly: MTT cell growth with PARPi or cisplatin. As to conditions: 22RV1, BRCA2 T3033Nfs*11, RB1-wt; cisplatin 500 nM, talazoparib 5 nM, 6 days (FIG. 11D). The protocol: as §3, with “The ploidy of each cell line is indicated. […] Equivalent volume of DMSO was used as placebo treatment. Cell growth was measured by MTT assay (see Example 1); SD, each point indicates the MTT count of each well of 96-well plate, P-values determined by Student's t-test. **P<0.01, ****P<0.0001. […] Cell Proliferation” for “Cell Proliferation”

For test [5], the system named is PC3M cells. The experiment in a line: MTT cell growth with PARPi or cisplatin. As to conditions: talazoparib 5 nM, 6 days, P<0.0001 (FIG. 11D). On the procedure: as §3, with “The ploidy of each cell line is indicated. […] Equivalent volume of DMSO was used as placebo treatment. Cell growth was measured by MTT assay (see Example 1); SD, each point indicates the MTT count of each well of 96-well plate, P-values determined by Student's t-test. **P<0.01, ****P<0.0001. […] Cell Proliferation” for “Cell Proliferation”

Test [6] has as its system MSK-PCa1 organoid. The experiment in a line: MTT growth of mCRPC organoids with PARPi. As to conditions: compared to benign organoid; 3 days (FIG. 6E).
Excerpt: (§4) Near-diploid benign prostate organoid is used as a control. […] GAPDH served as the loading control. […] The graphs show cell growth measured by MTT assay (±SD); P-trends determined by 2-way ANOVA.
(§5) Cell Culture. Human prostate cancer cells LNCaP, 22RV1, DU145, PC3, and VCaP were obtained from ATCC (Manassas, VA). LNCaP-C42 cells were obtained from VitroMed (Burlington, NC). The LNCaP-Abl cell line, E006AA-T cells, PC3M LAPC4 cell line were obtained. These cells were maintained in 10% FBS (LNCaP, LNCaP-C42, LAPC4, VCaP, 22RV1, DU145, PC3, PC3M, and E006AA) or 10% charcoal-stripped serum (LNCaP-Abl) supplemented with 2 mM of L-glutamine and 1×antibiotic/antimycotic (Gemini Bio-Products, Sacramento, CA) at 37° C. in 5% CO2. Human prostate epithelial cell RWPE1 was obtained from ATCC and cultured in keratinocyte serum-free medium (Thermo Fisher Scientific, Waltham, MA) at 37° C. in 5% CO2. Cells were authenticated by human short tandem repeat profiling at the MSK Integrated Genomics Operation Core. Patient-derived human prostate cancer organoids were cultured as described. Gao et al., Cell 159:176-87 (2014).
as §3

Test [7] concerns MSK-PCa3 organoid. Briefly: MTT growth of mCRPC organoids with PARPi. Particulars: compared to benign organoid; 3 days (FIG. 6E).
Excerpt: as §4, §5, §3

For `Cn1ncnc1[C@H]1c2n[nH]c(=O)c3cc(F)cc(c23)N[C@@H]1c1ccc(F)cc1` [talazoparib], the “sensitivity (cell growth, MTT)” value in test [1] is on record as “more sensitivity”; in test [4], “modest sensitivity”. The “cell growth inhibition (MTT)” value in test [2] is “more cell growth inhibition”. Besides, the “inhibitory effect on cell growth (MTT)” value in test [3] is “could not be detected”. In addition, in test [5], the “growth inhibition compared to olaparib (2.5 μM)” value was “more growth inhibition”. In addition, the “organoid growth (MTT)” value in test [6] and in test [7] was “growth reduction” each time.

Values taken from US20240150839A1, “METHODS FOR PREDICTING RESPONSIVENESS OF PROSTATE CANCER PATIENTS TO PARP INHIBITORS” (Memorial Sloan Kettering Cancer Center, priority 2019, published 2024).
